In patent publication US20090018019A1, “INCREASING PATHOGEN DEFENCE IN PLANTS” (priority 2005, published 2009):
Entries after “also recorded” stand apart in the source; their conditions may differ.

What was measured:
Format in all cases: in vivo
[1] = tested on: Contig11773_at REGULATOR OF PAT[…]; assay: DNA chip expression analysis of barley leaves after soil treatment; settings: 10 mg per plant to soil
Experimental: (§1) Barley seeds (of the Baroness variety) were sown in pots containing soil about 2 cm deep (1250 g of sandy loam/per pot; the soil moisture content was adjusted to 70% of the maximum water-holding capacity) and cultivated in a climatized chamber under specified light, moisture and temperature conditions (15 h white light, 70% atmospheric humidity, 23-19° C. day/night).
(§2) 14 days after the emergence of the barley plants 10 mg of imidacloprid per plant, dissolved in 100 ml water, were applied by means of a pipette to the soil around the base of the shoot. The same volume of water without any active compound was applied to the control pots. After the soil treatment the plants were no longer watered. At various times after application (0.25; 1; 6; 8; 11; 13; 15; 16 and 17 days) the leaves were harvested, quick-frozen in liquid nitrogen and stored at −80° C. until further treatment.
(§3) The labelled RNA probes for the DNA chip hybridization were produced according to the protocols (Expression Analysis, Technical Manual) of the Affymetrix company (Affymetrix Inc., 3380 Central Expressway, Santa Clara, Calif., USA). Whole RNA was first of all isolated from in each case 500 mg of the harvested leaves. 10 μg portions of whole RNA were used for the first and second strand cDNA synthesis. The cDNA was amplified with T7 polymerase and simultaneously labelled with biotin-UTP. 20 μg portions of this biotinylated cDNA were used for the hybridization of the barley genome array (Barleyl Gene Chip, Item no: 511012) from Affymetrix. This DNA microarray contains DNA sequences of 22840 genes composed of a total of 400000 EST (Expressed Sequence Tag) sequences. Then the DNA microarrays were washed in the Affymetrix Fluidics Station, stained with streptavidin/phycoerythrin (Molecular Probes, P/N S-866) and scanned with the Affymetrix Gene Chip Scanner 3000. The fluorescence data obtained were analyzed with the Microarray Suite 5 software from Affymetrix and the Expressionist Pro software from the GeneData company. After a quality check, all of the DNA chip analyses were stored in a database. Since the Affymetrix Gene Chip System is based on measuring the absolute expression values of the genes contained in the chip, the expression values of the biological replicates of treated and non-treated plants were averaged after normalization (median calculation). With the aid of the statistical ANOVA method, those genes were identified whose expression was increased in the plants treated with imidacloprid but remained relatively constant in the untreated controls. The assembly of gene groups from specific metabolic pathways, signal transduction chains or functions was carried out by a keyword search through the gene annotations supplied by Affymetrix and by linking the genes to their corresponding Gene Ontology Annotations (Gene Ontology Consortium).

[2] = tested on: Contig12046_at PATHOGENESIS RELATED PROTEIN-1; assay: as above; settings: 10 mg per plant to soil
Experimental: as §1, §2, §3

[3] = tested on: Contig2211_at PATHOGENESIS-RELATED PROTEIN PRECURSOR; assay: as above; settings: 10 mg per plant to soil
Experimental: as §1, §2, §3

[4] = tested on: HV_CEb0020C01r2_at INTEGUMENTARY MUCIN B.1; assay: as above; settings: 10 mg per plant to soil
Experimental: as §1, §2, §3

[5] = tested on: genes for PR proteins; assay: DNA chip expression analysis of barley leaves after soil treatment, gene group; settings: treated plants compared with non-treated plants
Experimental: as §1, §2
The labelled RNA probes for the DNA chip hybridization were produced according to the protocols (Expression Analysis, Technical Manual) of the Affymetrix company (Affymetrix Inc., 3380 Central Expressway, Santa Clara, Calif., USA). Whole RNA was first of all isolated from in each case 500 mg of the harvested leaves. […] The fluorescence data obtained were analyzed with the Microarray Suite 5 software from Affymetrix and the Expressionist Pro software from the GeneData company. […]

O=[N+]([O-])/N=C1\NCCN1Cc1ccc(Cl)nc1 [imidacloprid]
Induction factor = Expression (treated)/Expression (untreated) ([1]; 0.25 d): 0.9 | Median of the raw expression data, treated ([1]; 0.25 days): 175.49 | Induction factor = Expression (treated)/Expression (untreated) ([1]; 1 d): 0.4 | Median of the raw expression data, treated ([1]; 1 day): 70.99 | Induction factor = Expression (treated)/Expression (untreated) ([1]; 6 d): 7.8 | Median of the raw expression data, treated ([1]; 6 days): 1513.72 | Induction factor = Expression (treated)/Expression (untreated) ([1]; 8 d): 11.0 | Median of the raw expression data, treated ([1]; 8 days): 2102.86 | Induction factor = Expression (treated)/Expression (untreated) ([1]; 11 d): 7.4 | Median of the raw expression data, treated ([1]; 11 days): 1580.30 | Induction factor = Expression (treated)/Expression (untreated) ([1]; 13 d): 3.5 | Median of the raw expression data, treated ([1]; 13 days): 208.99 | Induction factor = Expression (treated)/Expression (untreated) ([1]; 15 d): 1.9 | Median of the raw expression data, treated ([1]; 15 days): 182.27 | Induction factor = Expression (treated)/Expression (untreated) ([1]; 16 d): 3.8 | Median of the raw expression data, treated ([1]; 16 days): 694.71 | Induction factor = Expression (treated)/Expression (untreated) ([1]; 17 d): 2.3 | Median of the raw expression data, treated ([1]; 17 days): 340.39 | Induction factor = Expression (treated)/Expression (untreated) ([2]; 0.25 d): 0.9 | Median of the raw expression data, treated ([2]; 0.25 days): 76.89 | Induction factor = Expression (treated)/Expression (untreated) ([2]; 1 d): 0.8 | Median of the raw expression data, treated ([2]; 1 day): 46.22 | Induction factor = Expression (treated)/Expression (untreated) ([2]; 6 d): 6.5 | Median of the raw expression data, treated ([2]; 6 days): 786.00 | Induction factor = Expression (treated)/Expression (untreated) ([2]; 8 d): 7.2 | Median of the raw expression data, treated ([2]; 8 days): 1336.13 | Induction factor = Expression (treated)/Expression (untreated) ([2]; 11 d): 7.8 | Median of the raw expression data, treated ([2]; 11 days): 792.96 | Induction factor = Expression (treated)/Expression (untreated) ([2]; 13 d): 2.7 | Median of the raw expression data, treated ([2]; 13 days): 140.26 | Induction factor = Expression (treated)/Expression (untreated) ([2]; 15 d): 2.5 | Median of the raw expression data, treated ([2]; 15 days): 150.31 | Induction factor = Expression (treated)/Expression (untreated) ([2]; 16 d): 2.9 | Median of the raw expression data, treated ([2]; 16 days): 622.77 | Induction factor = Expression (treated)/Expression (untreated) ([2]; 17 d): 0.9 | Median of the raw expression data, treated ([2]; 17 days): 220.80 | Induction factor = Expression (treated)/Expression (untreated) ([3]; 0.25 d): 1.0 | Median of the raw expression data, treated ([3]; 0.25 days): 223.31 | Induction factor = Expression (treated)/Expression (untreated) ([3]; 1 d): 1.0 | Median of the raw expression data, treated ([3]; 1 day): 206.49 | Induction factor = Expression (treated)/Expression (untreated) ([3]; 6 d): 3.1 | Median of the raw expression data, treated ([3]; 6 days): 824.50 | Induction factor = Expression (treated)/Expression (untreated) ([3]; 8 d): 3.7 | Median of the raw expression data, treated ([3]; 8 days): 928.65 | Induction factor = Expression (treated)/Expression (untreated) ([3]; 11 d): 3.0 | Median of the raw expression data, treated ([3]; 11 days): 868.02 | Induction factor = Expression (treated)/Expression (untreated) ([3]; 13 d): 1.8 | Median of the raw expression data, treated ([3]; 13 days): 296.99 | Induction factor = Expression (treated)/Expression (untreated) ([3]; 15 d): 1.1 | Median of the raw expression data, treated ([3]; 15 days): 252.25 | Induction factor = Expression (treated)/Expression (untreated) ([3]; 16 d): 1.5 | Median of the raw expression data, treated ([3]; 16 days): 340.64 | Induction factor = Expression (treated)/Expression (untreated) ([3]; 17 d): 0.8 | Median of the raw expression data, treated ([3]; 17 days): 219.24 | Induction factor = Expression (treated)/Expression (untreated) ([4]; 0.25 d): 1.4 | Median of the raw expression data, treated ([4]; 0.25 days): 96.81 | Induction factor = Expression (treated)/Expression (untreated) ([4]; 1 d): 0.9 | Median of the raw expression data, treated ([4]; 1 day): 87.44 | Induction factor = Expression (treated)/Expression (untreated) ([4]; 6 d): 4.3 | Median of the raw expression data, treated ([4]; 6 days): 418.12 | Induction factor = Expression (treated)/Expression (untreated) ([4]; 8 d): 2.8 | Median of the raw expression data, treated ([4]; 8 days): 428.35 | Induction factor = Expression (treated)/Expression (untreated) ([4]; 11 d): 2.2 | Median of the raw expression data, treated ([4]; 11 days): 389.74 | Induction factor = Expression (treated)/Expression (untreated) ([4]; 13 d): 1.7 | Median of the raw expression data, treated ([4]; 13 days): 180.00 | Induction factor = Expression (treated)/Expression (untreated) ([4]; 15 d): 1.0 | Median of the raw expression data, treated ([4]; 15 days): 170.35 | Induction factor = Expression (treated)/Expression (untreated) ([4]; 16 d): 1.2 | Median of the raw expression data, treated ([4]; 16 days): 161.77 | Induction factor = Expression (treated)/Expression (untreated) ([4]; 17 d): 0.6 | Median of the raw expression data, treated ([4]; 17 days): 106.72 | expression of genes for PR proteins [5]: increased expression; also recorded: powerful induction
